The text below walks through data of ChEMBL document CHEMBL1136230, “Antiallergic principles from Alpinia galanga: structural requirements of phenylpropanoids for inhibition of degranulation and release of TNF-alpha and IL-4 in RBL-2H3 cells” (Bioorg Med Chem Lett, 2003).

What is called inhibition is the change of the read-out against control, counted positive when it falls. One may read the IC50 as the concentration that gives 50% inhibition. One may read the Inhibition as the share of the control response that was lost under treatment.

Experiment [1] deals with Mus musculus. The experiment in a line: In vivo inhibitory activity against leakage of dye on ear PCA reaction 30 min after 200 mg/kg oral administration in mice. Type of experiment: functional. On the set-up: scale not given: the % may be the effect or the level left.
Experiment [2] has as its system Mus musculus. The experiment in a line: In vivo inhibitory activity against leakage of dye on ear PCA reaction 30 min after 100 mg/kg oral administration in mice. Type of experiment: functional. On the set-up: scale not given: the % may be the effect or the level left.
Experiment [3] has as its system Mus musculus. Kind of experiment: In vivo inhibitory activity against leakage of dye on ear PCA reaction 30 min after 400 mg/kg oral administration in mice. Type of experiment: functional. Details: scale not given: the % may be the effect or the level left.
In experiment [4] the test system is RBL-2H3. The experiment in a line: Percentage inhibition against release of beta-hexosaminidase from RBL-2H3 cells at 100 uM from control. Type of experiment: functional. The settings on record: Rattus norvegicus.
Experiment [5] deals with RBL-2H3. The experiment in a line: Inhibitory activity against release of beta-hexosaminidase from RBL-2H3 cells. Type of experiment: functional, cell-based. The settings on record: Rattus norvegicus.
The test system of experiment [6] is Mus musculus. The experiment in a line: In vivo inhibitory activity against leakage of dye on ear PCA reaction 30 min after 25 mg/kg oral administration in mice. Type of experiment: functional. On the set-up: scale not given: the % may be the effect or the level left.
Experiment [7] has as its system Mus musculus. Kind of experiment: In vivo inhibitory activity against leakage of dye on ear PCA reaction 30 min after 12.5 mg/kg oral administration in mice. Type of experiment: functional. On the set-up: scale not given: the % may be the effect or the level left.
Experiment [8] has as its system RBL-2H3. Kind of experiment: Percentage inhibition against antigen-induced IL-4 production in RBL-2H3 cells at 30 uM concentration. Type of experiment: functional. The settings on record: Rattus norvegicus.
Experiment [9] has as its system RBL-2H3. The experiment in a line: Percentage inhibition against antigen-induced TNF-alpha production in RBL-2H3 cells at 0 uM concentration. Type of experiment: functional, Rattus norvegicus.
Experiment [10] has as its system RBL-2H3. Kind of experiment: Percentage inhibition against antigen-induced TNF-alpha production in RBL-2H3 cells at 30 uM concentration. Type of experiment: functional. The settings on record: Rattus norvegicus.
For experiment [11], the system named is RBL-2H3. The experiment in a line: Percentage inhibition against antigen-induced IL-4 production in RBL-2H3 cells at 10 uM concentration. Type of experiment: functional. The settings on record: Rattus norvegicus.
For experiment [12], the system named is RBL-2H3. Kind of experiment: Inhibitory activity against TNF-alpha production in RBL-2H3 cells was determined. Type of experiment: functional, cell-based. The settings on record: Rattus norvegicus.
The test system of experiment [13] is RBL-2H3. Kind of experiment: Percentage inhibition against antigen-induced TNF-alpha production in RBL-2H3 cells at 100 uM concentration. Type of experiment: functional. The settings on record: Rattus norvegicus.
Experiment [14] relates to RBL-2H3. The experiment in a line: Percentage inhibition against antigen-induced IL-4 production in RBL-2H3 cells at 0 uM concentration. Type of experiment: functional, Rattus norvegicus.
In experiment [15] the test system is RBL-2H3. Kind of experiment: Inhibitory activity against IL-4 production in RBL-2H3 cells was determined. Type of experiment: functional, cell-based. The settings on record: Rattus norvegicus.
For experiment [16], the system named is RBL-2H3. The experiment in a line: Percentage inhibition against antigen-induced IL-4 production in RBL-2H3 cells at 100 uM concentration. Type of experiment: functional. The settings on record: Rattus norvegicus.
The test system of experiment [17] is Mus musculus. The experiment in a line: In vivo inhibitory activity against leakage of dye on ear PCA reaction 30 min after 50 mg/kg oral administration in mice. Type of experiment: functional. On the set-up: scale not given: the % may be the effect or the level left.
The test system of experiment [18] is Mus musculus. The experiment in a line: In vivo inhibitory activity against leakage of dye on ear PCA reaction 30 min after 6.25 mg/kg oral administration in mice. Type of experiment: functional. On the set-up: scale not given: the % may be the effect or the level left.
Experiment [19] relates to RBL-2H3. The experiment in a line: Percentage inhibition against antigen-induced IL-4 production in RBL-2H3 cells at 3 uM concentration. The settings on record: Rattus norvegicus. Type of experiment: functional.
Experiment [20] has as its system RBL-2H3. The experiment in a line: Percentage inhibition against antigen-induced TNF-alpha production in RBL-2H3 cells at 10 uM concentration. Type of experiment: functional. The settings on record: Rattus norvegicus.
For experiment [21], the system named is RBL-2H3. Kind of experiment: Percentage inhibition against antigen-induced TNF-alpha production in RBL-2H3 cells at 3 uM concentration. Type of experiment: functional. The settings on record: Rattus norvegicus.

On to `COc1ccc(/C=C/C(=O)Nc2ccccc2C(=O)O)cc1OC` [TRANILAST], for which the Control in experiment [1] is recorded as 49.8%; in [2], 66%; in experiment [3], 42.7%.
For `C=CCc1ccc(O)c(OC)c1` [EUGENOL], the inhibition at 100 µM in experiment [4] was 4%.
With `C=CCc1ccc(O)c(O)c1` [HYDROXYCHAVICOL], in experiment [4], the inhibition at 100 µM turned out to be 17%. The same compound returned a half-inhibitory concentration (IC50) in [5] greater than 100 µM.
Consider `CC(=O)OC/C=C/c1ccc(O)cc1`, for which the inhibition at 100 µM in experiment [4] was found to be 6%.
In the case of `C=C[C@H](OC(C)=O)c1ccc(OC(C)=O)cc1` [1'-ACETOXYCHAVICOL ACETATE], the Control was 49.5% in experiment [6], 65.5% in experiment [7], 44.3% in [17] and 72.4% in experiment [18]. Besides, the inhibition at 30 µM is 98.1% in experiment [8] and 66.9% in experiment [10]. Further, the Inhibition in experiment [9] and in experiment [14] was 0% each time. Moreover, the results for the inhibition at 10 µM in [11] and in experiment [20] were 45.9% and 32.4%, respectively. The IC50 in [12] came out at 17 µM; in experiment [15], 12 µM; in experiment [5], 15 µM. The inhibition at 100 µM in experiment [13] was found to be 87.2%; in experiment [16] it was 99.9%. Also, the inhibition at 3 µM in experiment [19] worked out at 39.4%; in experiment [21], 5.4%.
On to `COc1ccc(/C=C/C(=O)O)cc1` [4-METHOXYCINNAMIC ACID], for which the inhibition at 100 µM in experiment [4] worked out at 11%.
Turning to `C=CCc1ccc(O)cc1` [CHAVICOL], the inhibition at 100 µM in experiment [4] was determined as 3%.
On to `C=CCc1ccc(OC(C)=O)cc1`, for which, in [4], the inhibition at 100 µM was found to be 11%.
On the same count and under the same terms, for `C=CCc1ccc(OC(C)=O)c(OC)c1` [EUGENYL ACETATE] the value was 9%; for `C=C[C@H](O)c1ccc(OC(C)=O)cc1`, 4%.
`O=C/C=C/c1ccc(O)cc1` [p-HYDROXYCINNAMALDEHYDE]: in experiment [4], the inhibition at 100 µM was determined as 22%. In addition, the 50% inhibitory concentration (IC50) in [5] is greater than 100 µM.
On to `OC/C=C/c1ccc(O)cc1`, for which, in experiment [4], the inhibition at 100 µM came out at 2%.
Turning to `O=C(O)/C=C/c1cccc(O)c1`, the inhibition at 100 µM in experiment [4] came to 1%.
The same measure, in the same setting: for `O=C(O)/C=C/c1ccccc1O` [O-COUMARIC ACID] the value was 11%.
For `O=c1cc(-c2ccc(O)c(O)c2)oc2cc(O)cc(O)c12` [LUTEOLIN], the figures for the inhibition at 30 µM in [8] and in experiment [10] were 99.2% and 101%, respectively. Also, the Inhibition in experiment [9] and in [14] was 0% each time. Further, the inhibition at 10 µM came out at 89.4% in experiment [11] and 89% in [20]. Further, the IC50 in [12] was found to be 5.8 µM; in [15], 3.7 µM. The inhibition at 3 µM in [19] was determined as 41.6%; in experiment [21], 25%.
With `COc1cc(/C=C/C(=O)O)cc(OC)c1O` [SINAPINATE], the inhibition at 100 µM in experiment [4] is 10%.
The same measure, in the same setting: for `C=CCc1ccc(OC)c(OC)c1` [METHYLEUGENOL] the value was 1%.
Same read-out and setting: the figure for `COc1ccc(/C=C/C(=O)O)cc1OC` [O,O'-DIMETHYLCAFFEIC ACID] is 9%; for `O=C(O)/C=C/c1ccccc1` [CINNAMIC ACID] it is 7%.
Same read-out and setting: for `C=CCc1ccc(O[C@H]2O[C@@H](CO)[C@H](O)[C@H](O)[C@@H]2O)cc1` the value was 0%.
For `C=C[C@H](OC(C)=O)c1ccc(OC(C)=O)c(OC)c1`, the Control is 54.7% in experiment [6], 58.4% in [7], 37.8% in experiment [17] and 65.2% in [18]. For the same compound, the inhibition at 30 µM was 98.1% in experiment [8] and 101% in [10]. Besides, the Inhibition in [9] and in experiment [14] was 0% each time. Moreover, the inhibition at 10 µM came out at 45.9% in experiment [11] and 89% in experiment [20]. Also, the figures for the half-maximal inhibitory concentration (IC50) in experiment [12], in experiment [15] and in experiment [5] were 5.8 µM, 12 µM and 19 µM, respectively. Further, the inhibition at 100 µM in experiment [16] is 99.9%. Further, the inhibition at 3 µM in experiment [19] is 39.4%; in [21] it was 25%.
On to `CC[C@H](OC(C)=O)c1ccc(OC(C)=O)cc1`, for which half-maximal inhibition in [5] (IC50) was put at 60 µM.
Regarding `O=C(O)/C=C/c1ccc(O)c(O)c1` [CAFFEIC ACID], the inhibition at 100 µM in [4] amounted to 5%.
Regarding `C=C[C@H](OC(C)=O)c1ccccc1`, the inhibition at 100 µM in [4] is 9%.
On the same count and under the same terms, the figure for `C=C[C@H](O)c1ccccc1` is 3%; for `O=C(O)/C=C/c1ccc(O)cc1` [COUMARIC ACID] it is 6%.
In the case of `CC(=O)OC/C=C/c1ccc(OC(C)=O)cc1`, the inhibition at 100 µM in [4] was 21%. This compound displayed an IC50 in [5] greater than 100 µM.
